How the values were obtained:
salicylate hydroxylase [1] = settings: cited from earlier work; for product inhibition of the enzyme: found by White-Stevens and Kamin
[2] = cited from earlier work
salicylate hydroxylase [3] = experiment: Salicylate hydroxylase enzyme assay (NAD(P)H oxidation at 340 nm); type: biochemical, Pseudomonas
Protocol: Generally the reaction is carried out in a buffered solution (unless pH change or CO2 evolution is being measured). The buffer should offer near physiological conditions of pH and ionic strength for the enzyme. A potassium phosphate buffer, pH 7.6, at a concentration of 20 mM is preferred, although any pH from 6.5 to 8.9 and concentration from 5 to 100 mM is adequate. The sample may be added in any amount sufficient to trigger enzyme activity (if the salicylate is present in the sample) and the choice of sample size is discussed fully at a later time. From 1 to 40 μl per ml of total volume is convenient. Since the enzyme is generally available as a solution, it is conveniently added as such. About 10 μl of an enzyme solution containing 0.01 to 1 IU/ml is sufficient for most conditions, although the amount may be increased to speed up the reaction or decreased to slow the reaction down as needed. One IU (International Unit) is the amount of enzyme required to catalyze the disappearance of one μmole of NADH/min. NADH (or NADPH) may be present in a concentration of from about 10 to about 290 μM. Since the concentration of O2 in aqueous media is between 0.20 mM and 0.30 mM, it is not necessary to keep NAD(P)H concentration higher than […].
Enzyme Assay. The assay procedure for the enzyme and the definition of the enzyme were the same as that described in White-Stevens and Kamin (1970) except that EDTA and FAD were excluded in the assay mixture of the present work. The extinction coefficient of 6.22×10^3 M^-1 cm^-1 was used to convert the A340 change to micromoles of NADH oxidized.

O=C(O)c1ccccc1 [benzoate]
Km (salicylate hydroxylase [1]; substrate or pseudosubstrate of salicylate hydroxylase, read-out: Km of the enzyme): 2000 µM

NAD(P)^+
product inhibition of the enzyme (salicylate hydroxylase [1]): no product inhibition

Oc1ccccc1O [catechol]
product inhibition of the enzyme (salicylate hydroxylase [1]): no product inhibition

CC(=O)Oc1ccccc1C(=O)O [aspirin, acetylsalicylic acid]
overdose serum/plasma level (serious poison, coma and death) [2]: over 45 mg/dl

O=C(O)C(=O)O [oxalate]
inhibition of / interference with the enzyme activity (salicylate hydroxylase [3]): do not inhibit

O=C(O)CN(CCN(CC(=O)O)CC(=O)O)CC(=O)O [EDTA, ethylenediaminetetracetic acid]
inhibition of / interference with the enzyme activity (salicylate hydroxylase [3]): do not inhibit

O=C(O)c1ccccc1O [salicylate]
therapeutic range, serum or plasma level [2]: 5 to 40 mg/dL

heparin
inhibition of / interference with the enzyme activity (salicylate hydroxylase [3]): no effect

CC(=O)Nc1ccc(O)cc1 [acetaminophen]
inhibition of / interference with the enzyme activity (salicylate hydroxylase [3]): do not interfere

O=C(O)CC(O)(CC(=O)O)C(=O)O [citrate]
inhibition of / interference with the enzyme activity (salicylate hydroxylase [3]): do not inhibit

Source: patent US5362630A, “Isolation of pseudomonas salicylate hydroxlase and its use for the identification and quantitation of salicylate in body fluids” (Duke University, priority 1992, dated 1994)
